“Also recorded” adds a separate entry of the source.
Key:
[1] = system: AD-iENP-derived neurons; experiment: pTAU (AT8) ICC in AD-iENP-derived neurons, AD drug testing; assay type: cell-based, human; settings: AD-iENP-derived neurons (AD1, APOE4/E4), treated for 2 days at 7 days after cortical differentiation; vs DMSO
Protocol: General neural differentiation was examined using differentiation media [Neurobasal, B27 supplement, 1% NEAA, 2 mM glutamine, 1 mM sodium pyruvate (Invitrogen), 300 μg/ml dbcAMP, 50 μM ascorbic acid (Sigma), 20 ng/ml BDNF, 20 ng/ml GDNF, 50 ng/ml NGF (Peprotech)], while specific neuronal differentiation were examined using cortical neuronal differentiation media, dopaminergic neuronal differentiation media, and PNS neuronal differentiation media [cortical neuronal differentiation media: Neurobasal, N2 supplement, B27 supplement (Invitrogen), 100 ng/ml SHH, 125 ng/ml Noggin, 250 ng/ml DKK1, 10 ng/ml BDNF, 10 ng/ml bFGF (R&D), 2 μM XAV939, 100 nM LDN93189, 10 μM SB431542, 200 μM ascorbic acid, 200 μM dbcAMP (Sigma); dopaminergic neuronal differentiation media: DMEM/F12, N2 supplement (Invitrogen), 20 ng/ml BDNF, 200 ng/ml SHH, 100 ng/ml FGF8P (R&D), 200 μM ascorbic acid (Sigma); PNS neuronal differentiation media: DMEM/F12, N2 supplement (Invitrogen), 3 μM CHIR99021, 10 μM SU5402, 10 μM DAPT, 200 μM dbcAMP]. For AD drug testing, AD- and control-iENPs were subjected to cortical differentiation. At 7 days after differentiation, cells were treated with SB415286, 1-Azakenpaullone (Selleckchem), or DMSO (Sigma) for 2 days. […]
The ICC procedure was performed as previously described. […] Signals were recorded using a Zeiss microscope and Spot software. […]

[2] = system: HD-iENPs; experiment: γH2AX ICC (DNA damage) in HD-iENPs; assay type: cell-based, human; settings: vs vehicle (DMSO)
[3] = system: HD-iENP-derived neurons; experiment: γH2AX ICC (DNA damage) in HD-iENP-derived neurons; assay type: cell-based, human; settings: neuronal derivatives of HD-iENPs; vs vehicle (DMSO)
[4] = system: TTX-sensitive sodium channels; assay type: cell-based, human
[5] = system: FBs infected with virus encoding the 6 or 7TF combinations

Molecule: O=C1Cc2c([nH]c3ccc(Br)cc23)-c2ncccc2N1 [1-Aza, 1-Azakenpaullone]
- pTAU aggregation / pTAU expression [1]: significantly reduced

Molecule: CCNC(=O)[C@H]1O[C@@H](n2cnc3c(N)nc(NCCc4ccc(CCC(=O)O)cc4)nc32)[C@H](O)[C@@H]1O [CGS21680]
- γH2AX expression (DNA damage) [2]: significantly decreased; also recorded: decreased DNA damage
- γH2AX expression (DNA damage) [3]: significantly decreased; also recorded: decreased DNA damage

Molecule: O=C1NC(=O)C(c2ccccc2[N+](=O)[O-])=C1Nc1ccc(O)c(Cl)c1 [SB415286]
- pTAU aggregation / pTAU expression [1]: significantly reduced

Molecule: NC1=N[C@H](O)[C@H]2[C@H]3O[C@]4(O)O[C@@H]([C@@H](O)[C@@]2(N1)[C@@H]4O)[C@]3(O)CO [TTX, tetrodotoxin]
- inward Na+ currents [4]: could be blocked
- sodium channel-mediated inward currents [4]: blocked

Molecule: RepSox
- efficiency of iENP-6F generation [5]: significantly improved

From patent US11339405B2, “Kit and method for producing induced embryonic neural progenitors” (priority 2017, dated 2022)
